The text below walks through data of patent US11591351B2, “Benzyl compound” (priority 2015, dated 2023).

The conditions of this data set: 25° C.; for solubility enhanced versus unprotected H-Gly-Gly-Gly-OH: CPME, relative to H-Gly-Gly-Gly-OH.

Converted amounts (≈) assume the structure as drawn.

For the compound `CC(C)[Si](OCCCCCCCCCCCOc1ccc(COC(=O)CNC(=O)CNC(=O)CN)c(OCCCCCCCCCCCO[Si](C(C)C)(C(C)C)C(C)C)c1)(C(C)C)C(C)C` [H-Gly-Gly-Gly-O-TIPS2], the “solubility in cyclopentyl methyl ether (CPME)” value is 181 mM (≈ 175 mg/mL) and the “solubility enhanced versus unprotected H-Gly-Gly-Gly-OH” value was “about 5,000 fold”.
With `CC(C)[Si](OCC(CO[Si](C(C)C)(C(C)C)C(C)C)(CO[Si](C(C)C)(C(C)C)C(C)C)NC(=O)CCCCCCCCCCOc1ccc(COC(=O)CNC(=O)CNC(=O)CN)c(OCCCCCCCCCCC(=O)NC(CO[Si](C(C)C)(C(C)C)C(C)C)(CO[Si](C(C)C)(C(C)C)C(C)C)CO[Si](C(C)C)(C(C)C)C(C)C)c1)(C(C)C)C(C)C` [H-Gly-Gly-Gly-O-TIPS6], the “solubility in cyclopentyl methyl ether (CPME)” value is 286 mM (≈ 522 mg/mL) and the “solubility enhanced versus unprotected H-Gly-Gly-Gly-OH” value is reported as “about 9,000 fold”.
